Test results as given in patent publication US20240287065A1, “COMPOUND AS CDK KINASE INHIBITOR AND USE THEREOF” (TYK MEDICINES (ZHENGZHOU) , INC., priority 2021, published 2024).

Target: CDK6/CycD1 (Homo sapiens, UniProt Q00534)
Assay: Enzyme activity test
Format: biochemical
Conditions: not given
Procedure: (§1) • 1. The test compounds and pabocinib were configured into a […] solution of DMSO; • 2. 20 nL of stock solution was transferred to a 384-well plate using Echo550. DMSO was used as a blank control.
(§2) • 1. according to the following table to prepare 1.3X enzyme solution containing enzyme, substrate and cofactor; • 2. 15 μL of 1.3X enzyme solution was added to each well and the mixture was incubated for 30 min at room temperature; • 3. 5 μL of ATP solution was added to initiate the reaction. The final volume of each well was 20 μL; • 4. After incubation for 150 min at room temperature, 75 μL of termination buffer solution was added to terminate the experiment; • 5. The samples were analyzed using EZ reader.
(§3) The % inhibition was calculated using the following equation
(§4) The one treated with DMSO is the positive control (PC)
(§5) The one without enzyme is the negative control (NC)
(§6) % Inhibition=100-100*((CRPC−CRsample)/(CRPC−CRNC))

Sequence of CDK6/CycD1 (Q00534 whole entry, species assumed): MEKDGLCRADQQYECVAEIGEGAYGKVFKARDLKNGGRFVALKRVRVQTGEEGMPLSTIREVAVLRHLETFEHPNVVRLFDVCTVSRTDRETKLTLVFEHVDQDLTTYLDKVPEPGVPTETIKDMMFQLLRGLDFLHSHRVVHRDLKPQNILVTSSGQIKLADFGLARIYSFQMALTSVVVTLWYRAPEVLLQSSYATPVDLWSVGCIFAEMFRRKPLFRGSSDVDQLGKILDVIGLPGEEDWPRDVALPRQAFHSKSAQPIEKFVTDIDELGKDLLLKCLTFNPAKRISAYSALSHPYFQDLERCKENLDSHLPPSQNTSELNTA
Sequence of CDK6/CycD1 (P24385 whole entry partner, species assumed): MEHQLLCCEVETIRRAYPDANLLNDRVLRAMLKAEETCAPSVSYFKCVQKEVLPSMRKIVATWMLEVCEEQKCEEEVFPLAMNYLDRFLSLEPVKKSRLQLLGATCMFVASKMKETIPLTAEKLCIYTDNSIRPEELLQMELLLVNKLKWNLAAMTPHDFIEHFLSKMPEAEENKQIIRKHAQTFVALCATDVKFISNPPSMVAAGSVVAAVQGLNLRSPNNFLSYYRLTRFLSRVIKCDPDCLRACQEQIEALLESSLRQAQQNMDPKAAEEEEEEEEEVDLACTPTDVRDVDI

Row | Compound | IC50 [nM]
1 | C[C@@]1(O)CCC[C@H]1n1c(=O)c(OC(F)F)cc2cnc(NC3CCN(S(=O)(=O)c4ccc(S(C)(=O)=O)cc4)CC3)nc21 [Example 11] | < 10
2 | C[C@@]1(O)CCC[C@H]1n1c(=O)c(OC(F)F)cc2cnc(NC3CCN(S(=O)(=O)c4cccnc4)CC3)nc21 [Example 51] | < 10
3 | C[C@@]1(O)CCC[C@H]1n1c(=O)c(OC(F)F)cc2cnc(NC3CCN(S(=O)(=O)c4ccccc4C#N)CC3)nc21 [Example 9] | < 10
4 | COc1cccc(S(=O)(=O)N2CCC(Nc3ncc4cc(OC(F)F)c(=O)n([C@@H]5CCC[C@@]5(C)O)c4n3)CC2)c1 [Example 10] | < 10
5 | C[C@@]1(O)CCC[C@H]1n1c(=O)c(OC(F)F)cc2cnc(NC3CCN(S(=O)(=O)c4cc(F)ccc4F)CC3)nc21 [Example 26] | < 10

Target: CDK2/CycE1 (Homo sapiens, UniProt P24941)
Assay: Enzyme activity test
Format: biochemical
Conditions: not given
Procedure: as §1, §2, §3, §4, §5, §6

Row | Compound | IC50 [nM]
6 | C[C@@]1(O)CCC[C@H]1n1c(=O)c(OC(F)F)cc2cnc(NC3CCN(S(=O)(=O)c4ccc(S(C)(=O)=O)cc4)CC3)nc21 [Example 11] | < 10
7 | C[C@@]1(O)CCC[C@H]1n1c(=O)c(OC(F)F)cc2cnc(NC3CCN(S(=O)(=O)c4cccnc4)CC3)nc21 [Example 51] | < 10
8 | C[C@@]1(O)CCC[C@H]1n1c(=O)c(OC(F)F)cc2cnc(NC3CCN(S(=O)(=O)c4ccccc4C#N)CC3)nc21 [Example 9] | < 10
9 | COc1cccc(S(=O)(=O)N2CCC(Nc3ncc4cc(OC(F)F)c(=O)n([C@@H]5CCC[C@@]5(C)O)c4n3)CC2)c1 [Example 10] | < 10
10 | C[C@@]1(O)CCC[C@H]1n1c(=O)c(OC(F)F)cc2cnc(NC3CCN(S(=O)(=O)c4cc(F)ccc4F)CC3)nc21 [Example 26] | < 10

Target: CDK4/CycD3 (Homo sapiens, UniProt P11802)
Sequence (P11802 whole entry, species assumed): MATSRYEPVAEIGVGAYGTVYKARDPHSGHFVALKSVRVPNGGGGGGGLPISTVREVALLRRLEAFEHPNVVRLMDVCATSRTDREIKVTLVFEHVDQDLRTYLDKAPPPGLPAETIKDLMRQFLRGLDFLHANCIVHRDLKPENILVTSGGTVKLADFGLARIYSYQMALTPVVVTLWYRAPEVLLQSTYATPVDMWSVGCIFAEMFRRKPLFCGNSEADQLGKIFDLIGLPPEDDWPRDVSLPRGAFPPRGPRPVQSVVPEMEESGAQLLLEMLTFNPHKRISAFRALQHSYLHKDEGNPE
Sequence (P30281 whole entry partner, species assumed): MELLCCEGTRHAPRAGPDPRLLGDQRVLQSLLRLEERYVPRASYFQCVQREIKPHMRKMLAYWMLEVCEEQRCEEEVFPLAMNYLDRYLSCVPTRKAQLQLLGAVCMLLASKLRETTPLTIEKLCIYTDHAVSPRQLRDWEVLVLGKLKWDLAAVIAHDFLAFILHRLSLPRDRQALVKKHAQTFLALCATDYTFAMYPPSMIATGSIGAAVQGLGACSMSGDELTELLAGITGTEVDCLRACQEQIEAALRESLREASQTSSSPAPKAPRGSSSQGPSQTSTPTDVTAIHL
Assay: Enzyme activity test
Format: biochemical
Conditions: not given
Procedure: as §1, §2, §3, §4, §5, §6

Row | Compound | IC50 [nM]
11 | C[C@@]1(O)CCC[C@H]1n1c(=O)c(OC(F)F)cc2cnc(NC3CCN(S(=O)(=O)c4ccc(S(C)(=O)=O)cc4)CC3)nc21 [Example 11] | < 10
12 | C[C@@]1(O)CCC[C@H]1n1c(=O)c(OC(F)F)cc2cnc(NC3CCN(S(=O)(=O)c4cccnc4)CC3)nc21 [Example 51] | < 10
13 | C[C@@]1(O)CCC[C@H]1n1c(=O)c(OC(F)F)cc2cnc(NC3CCN(S(=O)(=O)c4ccccc4C#N)CC3)nc21 [Example 9] | < 10
14 | COc1cccc(S(=O)(=O)N2CCC(Nc3ncc4cc(OC(F)F)c(=O)n([C@@H]5CCC[C@@]5(C)O)c4n3)CC2)c1 [Example 10] | < 10
15 | C[C@@]1(O)CCC[C@H]1n1c(=O)c(OC(F)F)cc2cnc(NC3CCN(S(=O)(=O)c4cc(F)ccc4F)CC3)nc21 [Example 26] | 10 to 100

System: OVCAR3 cells
Assay: Cell proliferation inhibition assay (MTT, 7 days)
Format: cell-based
Conditions: Homo sapiens, OVCAR-3, 168 h, 7 days incubation
Procedure: (§7) MCF7, T47D, OVCAR3 and HCC1806 cells were inoculated in 96-well plates at 3000, 3000, 2500, and 2000 cells/well, respectively, and cultured overnight at 37° C., 5% C02 incubator.
(§8) 1. […] Then 2.5 μl of the stock solution was dissolved in 497.5 μl of DMSO-free medium, and then a 3-fold serial gradient dilution was performed with 0.1% DMSO medium for a total of 9 concentrations, and the concentrations of the compounds after dilution were as follows: • 10000 nM, 3333.33 nM, 1111.11 nM, 370.34 nM, 123.45 nM, 41.15 nM, 13.72 nM, 4.57 nM, and 1.52 nM. • b) After fully mixing, 20 μL of compound solutions were added into cell culture plates containing 80 μL of cells respectively, with 4 replicate wells for each concentration. • c) The cells were transferred to an incubator and incubated for 7 days, and exchanged with fresh culture medium containing the same concentration of compounds when incubated to day 4. 2. MTT assay • a) The cell culture plate was taken out and 10 μL of 5 mg/ml MTT was added to the hood. • b) The cell culture plate was put back into the incubator and continued to incubate for 3 hours. • c) The cell culture plate was taken out to remove the culture medium, and 100 μL of isopropanol (0.4 mMHCl, 0.4% NP40) was added to the plate, and the plate was shaken on a shaker at room temperature for 30 minutes and read at 570 nm. 3. Data analysis
(§9) The survival rate (% Cell Survival) was calculated using the following equation:
(§10) % Cell Survival=100%×(OD_Sample−OD_LCave)/(OD_HC−OD_LCave) • OD_HC: 0.1‰ cell readings of DMSO control • OD_Sample: cell readings of compound addition • OD_LC: readings of blank medium • Analyed by Prizm: Dose-response-Inhibition Log(inhibitor) vs response (three parameters for the best fit)
(§11) IC50 (nM) values were calculated by concentration-response curve fitting.

Row | Compound | IC50 [nM]
16 | C[C@@]1(O)CCC[C@H]1n1c(=O)c(OC(F)F)cc2cnc(NC3CCN(S(=O)(=O)c4ccc(S(C)(=O)=O)cc4)CC3)nc21 [Example 11] | ≤ 50
17 | C[C@@]1(O)CCC[C@H]1n1c(=O)c(OC(F)F)cc2cnc(NC3CCN(S(=O)(=O)c4cccnc4)CC3)nc21 [Example 51] | ≤ 50
18 | C[C@@]1(O)CCC[C@H]1n1c(=O)c(OC(F)F)cc2cnc(NC3CCN(S(=O)(=O)c4ccccc4C#N)CC3)nc21 [Example 9] | ≤ 50
19 | COc1cccc(S(=O)(=O)N2CCC(Nc3ncc4cc(OC(F)F)c(=O)n([C@@H]5CCC[C@@]5(C)O)c4n3)CC2)c1 [Example 10] | ≤ 50
20 | C[C@@]1(O)CCC[C@H]1n1c(=O)c(OC(F)F)cc2cnc(NC3CCN(S(=O)(=O)c4cc(F)ccc4F)CC3)nc21 [Example 26] | 50 to 5200

System: T47D cells
Assay: Cell proliferation inhibition assay (MTT, 7 days)
Format: cell-based
Conditions: Homo sapiens, 168 h, 7 days incubation
Procedure: as §7, §8, §9, §10, §11

Row | Compound | IC50 [nM]
21 | C[C@@]1(O)CCC[C@H]1n1c(=O)c(OC(F)F)cc2cnc(NC3CCN(S(=O)(=O)c4ccc(S(C)(=O)=O)cc4)CC3)nc21 [Example 11] | ≤ 50
22 | C[C@@]1(O)CCC[C@H]1n1c(=O)c(OC(F)F)cc2cnc(NC3CCN(S(=O)(=O)c4cccnc4)CC3)nc21 [Example 51] | ≤ 50
23 | C[C@@]1(O)CCC[C@H]1n1c(=O)c(OC(F)F)cc2cnc(NC3CCN(S(=O)(=O)c4ccccc4C#N)CC3)nc21 [Example 9] | 50 to 5200
24 | COc1cccc(S(=O)(=O)N2CCC(Nc3ncc4cc(OC(F)F)c(=O)n([C@@H]5CCC[C@@]5(C)O)c4n3)CC2)c1 [Example 10] | ≤ 50
25 | C[C@@]1(O)CCC[C@H]1n1c(=O)c(OC(F)F)cc2cnc(NC3CCN(S(=O)(=O)c4cc(F)ccc4F)CC3)nc21 [Example 26] | ≤ 50

System: MCF7 cells
Assay: Cell proliferation inhibition assay (MTT, 7 days)
Format: cell-based
Conditions: Homo sapiens, 168 h, 7 days incubation
Procedure: as §7, §8, §9, §10, §11

Row | Compound | IC50 [nM]
26 | C[C@@]1(O)CCC[C@H]1n1c(=O)c(OC(F)F)cc2cnc(NC3CCN(S(=O)(=O)c4ccc(S(C)(=O)=O)cc4)CC3)nc21 [Example 11] | ≤ 50
27 | C[C@@]1(O)CCC[C@H]1n1c(=O)c(OC(F)F)cc2cnc(NC3CCN(S(=O)(=O)c4cccnc4)CC3)nc21 [Example 51] | ≤ 50
28 | C[C@@]1(O)CCC[C@H]1n1c(=O)c(OC(F)F)cc2cnc(NC3CCN(S(=O)(=O)c4ccccc4C#N)CC3)nc21 [Example 9] | 50 to 5200
29 | COc1cccc(S(=O)(=O)N2CCC(Nc3ncc4cc(OC(F)F)c(=O)n([C@@H]5CCC[C@@]5(C)O)c4n3)CC2)c1 [Example 10] | 50 to 5200
30 | C[C@@]1(O)CCC[C@H]1n1c(=O)c(OC(F)F)cc2cnc(NC3CCN(S(=O)(=O)c4cc(F)ccc4F)CC3)nc21 [Example 26] | 50 to 5200

System: HCC1806 cells
Assay: Cell proliferation inhibition assay (MTT, 7 days)
Format: cell-based
Conditions: Homo sapiens, HCC1806, 168 h, HCC1086 [sic], 7 days incubation
Procedure: as §7, §8, §9, §10, §11

Row | Compound | IC50 [nM]
31 | C[C@@]1(O)CCC[C@H]1n1c(=O)c(OC(F)F)cc2cnc(NC3CCN(S(=O)(=O)c4ccc(S(C)(=O)=O)cc4)CC3)nc21 [Example 11] | ≤ 50
32 | C[C@@]1(O)CCC[C@H]1n1c(=O)c(OC(F)F)cc2cnc(NC3CCN(S(=O)(=O)c4cccnc4)CC3)nc21 [Example 51] | 50 to 5200
33 | C[C@@]1(O)CCC[C@H]1n1c(=O)c(OC(F)F)cc2cnc(NC3CCN(S(=O)(=O)c4ccccc4C#N)CC3)nc21 [Example 9] | 50 to 5200
34 | COc1cccc(S(=O)(=O)N2CCC(Nc3ncc4cc(OC(F)F)c(=O)n([C@@H]5CCC[C@@]5(C)O)c4n3)CC2)c1 [Example 10] | 50 to 5200
35 | C[C@@]1(O)CCC[C@H]1n1c(=O)c(OC(F)F)cc2cnc(NC3CCN(S(=O)(=O)c4cc(F)ccc4F)CC3)nc21 [Example 26] | 50 to 5200
